Tested on: pUAS_GFP_mandi
Experiment: Mandipropamid control of transcription, pUAS_GFP_mandi transient assay, anti-GFP Western blot
Type: in vivo, N. benthamiana
Conditions: 50 μM mandipropamid, 24 hours; FIG. 14
Experimental: To establish if the orthogonal mandipropamid response module could be used to control transcriptional responses in vivo, we designed an experimental system where PYR1*^-MANDI was fused to the GAL4 AD, and HAB1* fused to its BD. Nuclear export sequences were added to the BD-HAB1* component to reduce its access to the nucleus in the absence of mandipropamid and thereby reduce background transcription from the UAS. The constructs were assembled into a plant transformation vector along with a GAL4-responsive UAS in front of a CaMV minimal promoter driving GFP. The plant transformation vector used was a derivative of pCB308 (Xiang, Han, Lutziger, Wang, & Oliver, 1999) in which a kanamycin resistance marker cassette replaces the vector's centrally located uidA and bar expression cassettes. […]
The resultant construct (pUAS_GFP_mandi) was tested using transient assays in N. benthamiana, as described above. […] 24 hours later, leaf tissue was collected, frozen in liquid N2, and homogenized by bead beating using Precellys instrument (Bertin Technologies), for 6000 rpm for 30 seconds and then resuspended in SDS sample buffer containing protease inhibitor, separated by SDS-PAGE, electro-blotted onto nitrocellulose membrane and detected using an anti-GFP antibody as described in Example 4 above.

With C#CCOc1ccc(CCNC(=O)C(OCC#C)c2ccc(Cl)cc2)cc1OC (stereo not shown) [mandipropamid] the GFP production was “mandipropamid inducible GFP production”.
